# Patent US20100099731A1, “Use of Endothelial Interrupters in the Treatment of Neurodegenerative Diseases” (Texas Tech University System, priority 2008, published 2010)
# “Also recorded” adds a separate entry of the source.
# Columns and labels:
# Rats [1] = test: Infusion of human apolipoprotein-E4 into rats; type: in vivo, rat; conditions: 0.6 ng/hr, i.c.v., 56 days
# Endothelial cells [2] = test: Menadione-induced MMP-9 release from endothelial cells, indirect ELISA; type: cell-based
# [3] = test system: cultured brain endothelial cells; test: IL-1β and TNFα expression in brain endothelial cells treated with TGF-β, ELISA and western blot; type: cell-based; conditions: vs untreated endothelial cells
# Text: Cerebrovascular TGF-β contributes to inflammation in the AD brain. TGF-β plays a central role in the response of the brain to injury and is increased in the brain in AD. In this study, we determined whether expression of TGF-β was abnormal in the microvasculature in AD and whether TGF-β affected vascular production of pro-inflammatory cytokines, IL-1β and TNFα. Results from western blot analysis and ELISA indicated a higher level of TGF-β in AD vessels compared to controls. To determine whether TGF-β affects vascular release of inflammatory factors, cultured brain endothelial cells were treated with TGF-β and levels of IL-1β and TNFα determined. […] Studies have shown that TGF-β mediated signaling is critical to controlling the “angiogenic switch”.
# [4] = approved treatments for AD; cited from earlier work
# Rats [5] = test: Intracerebroventricular thrombin infusion in rats, radial eight-arm maze and neuropathology; type: in vivo, rat
# Method: Thrombin, a mediator of neurotoxicity and memory impairment. Thrombin has been found in neuritic plaques in AD. Also, traumatic brain injury, where neurons are exposed to high thrombin levels is associated with an increased incidence of AD. Our objective was to determine the effects of thrombin administered in vivo on cognitive function and neuropathology. Rats were trained using a radial eight-arm maze and then thrombin (25 or 100 nM, […], 28 days) or vehicle was delivered via intra cerebroventricular infusion. […] Thrombin-induced changes in cognitive function and ventricular enlargement were inhibited by hirudin.
# Rats [6] = test: Intracerebroventricular thrombin infusion in rats, apolipoprotein-E levels; type: in vivo, rat; conditions: thrombin 100 nM, 0.25 microl/hr, 28 days, i.c.v.; vs vehicle, p<0.001
# Text: Chronic thrombin exposure results in an increase in apolipoprotein-E levels. Studies have shown that individuals with both a history of traumatic brain injury and inheritance of apolipoprotein E-4 (ApoE4) allele are associated with a poor neurologic outcome and an increased risk for Alzheimer's disease. We assessed the hypothesis that thrombin released during brain injury causes an increase in apolipoprotein-E levels and such increase in the levels of apolipoprotein-E4 isoform may have amyloidogenic effects. Rats received either thrombin (100 nM, 0.25 microl/hr, 28 days) or vehicle via intracerebroventricular infusion. […] Such increase in Apolipoprotein-E4 isoform facilitates beta-amyloid deposition and cognitive deficits (Reference, item # 9).
# [7] = test system: cultured brain endothelial cells; test: TIMP expression in cultured brain endothelial cells; type: cell-based
# Text: Angiogenic proteins are expressed by brain blood vessels in AD. Data are emerging to support the idea that mediators of angiogenesis are found in the AD brain. The objective of this study is to compare the expression of the angiogenic mediator's vascular endothelial growth factor (VEGF), angiopoietin, and matrix metalloproteinases (MMPs) in the microcirculation of AD patients and age-matched controls. […] AD-derived microvessels also release higher levels of MMP-2 and MMP-9 compared to controls. […] In this regard we find high levels of the tissue inhibitor of matrix metalloproteinases-1 (TIMP-1) in AD, but not control vessels.
# [8] = test system: cultured brain endothelial cells; test: HIF1-α expression in cultured brain endothelial cells; type: cell-based
# Text: Thrombin and inflammatory proteins are elevated in Alzheimer's disease microvessels: Implications for disease pathogenesis. […] The objective of this study is to determine whether levels of neurotoxic (thrombin) and inflammatory proteins (IL-8; integrins αvβ3 and αvβ5) are altered in microvessels isolated from AD patients compared to levels in vessels obtained from non-demented age-matched controls. We also evaluate expression, in AD and control microvessels, of the transcription factor hypoxiainducible factor 1-α (HIF1-α), which regulates pro-inflammatory gene expression, and the regulation of HIF1-α expression by thrombin in cultured brain endothelial cells.
# [9] = test system: Rat neuronal cortical cell cultures; conditions: thrombin 100 nM or SNP 10 μM, 24 h
# thrombin = thrombin (Homo sapiens, UniProt P00734); test: ApoE4 fragment generation by endothelial cell conditioned media, western blot; type: biochemical; conditions: conditioned medium incubated with apoE4 for 24 h
# Method: Injured endothelial cells release thrombin and generate neurotoxic apolipoprotein E fragments. The objective of this study was to determine if injured brain endothelial cells could be a source of thrombin and neurotoxic apoE fragments. Brain endothelial cells were injured by oxidant and/or inflammatory stress. This was accomplished by incubating cultured endothelial cells with either, sodium nitroprusside (SNP), inflammatory cocktail (LPS, […], IL-6, IFN-γ, TNFα) or both for 24 h. The conditioned medium was then (a) analyzed for thrombin using a chromogenic thrombin activity assay, (b) incubated with apoE4 for 24 h and then analyzed by western blot for detection of apoE4 fragments, or (c) incubated with apoE4 and added to neuronal cultures for 24 h. […] This pattern was consistent with that observed using purified thrombin and was inhibited by the thrombin inhibitor hiruidin.
# [10] = test system: AD transgenic mouse APPSWE 2576; test: Radial arm maze, AD transgenic mice treated with Sunitinib malate; type: in vivo; conditions: Sunitinib malate 40 mg/kg daily in diet; vs untreated AD mice receiving vehicle; p<0.05
# [11] = test system: brain-derived endothelial cells (EC150); test: MMP-9 release from brain endothelial cells, indirect ELISA; type: cell-based; conditions: 0-500 nM Sunitinib malate, 4 h; p<0.001 vs cells without drug
# Endothelial cells [12] = test: Menadione-mediated TNF-α release from endothelial cells, indirect ELISA; type: cell-based; conditions: 500 nM Sunitinib malate 4 h prior to (Pre), simultaneously (Co) or after (Post) 4 h menadione 25 μM
# [13] = In vivo cognition with acetaminophen; conditions: in vivo work
# [14] = test system: rat brain endothelial cells; test: Cell viability (MTT) of brain endothelial cells challenged with menadione; conditions: acetaminophen pretreatment, then 25 μM menadione 2-3 h; p<0.001 vs cells without acetaminophen
# Method: Cell viability was determined with MTT assay. Number of viable cells in untreated cells (control) was defined as 100%. Data are mean±SD of 3 separate experiments.
# [15] = 100 nM thrombin, 0.25 μg/h, 28 days, intra cerebroventricular infusion
# [16] = rats, thrombin intra cerebroventricular infusion
compound,measurement,setting,value
ApoE4: human apolipoprotein-E4 isoform infused i.c.v. into rats,beta-amyloid deposition and GFAP-positive astrocytes,Rats [1],beta-amyloid deposition and increased the number of GFAP-positive astrocytes
same,spatial memory,Rats [1],significant spatial memory deficits
CC1=CC(=O)c2ccccc2C1=O [menadione],release of MMP-9 and TNFα,Endothelial cells [2]; brain endothelial cells exposed to menadione,increased release of both MMP-9 and the inflammatory cytokine TNFα
TGF-β,endothelial expression of IL-1β and TNFα,[3],robust endothelial expression of these factors
CC12CC3CC(C)(C1)CC(N)(C3)C2 [Memantine],Side Effects,[4],"Headache, constipation."
thrombin,cognitive function,Rats [5]; [15],cognitive impairments including deficits in reference memory and an increase in task latency
same,neuropathology,Rats [5]; [15],"enlargement of cerebral ventricles, an increased number of TUNEL-positive cells, astrogliosis, and an increase in the immunoreactivity for phosphorylated neurofilament, and apolipoprotein-E fragments"
same,apolipoprotein-E levels in hippocampus,Rats [6],increased apolipoprotein-E levels in hippocampus
same,TIMP-1 expression,[7],up regulation of TIMP-1
same,HIF1-alpha expression,[8],increased expression of HIF1-alpha
same,cyclin D1 mRNA expression,[9],increase in cyclin D1 expression
same,neuronal apoptosis (nucleosome ELISA),[9],evoke neuronal cell death
hirudin,generation of apoE4 fragments (20-29 kDa) by endothelial cell conditioned media,thrombin,inhibited
same,thrombin-induced changes in cognitive function,Rats [5]; [16],inhibited
same,thrombin-induced ventricular enlargement,Rats [5]; [16],inhibited
"CCN(CC)CCNC(=O)c1c(C)[nH]c(/C=C2\C(=O)Nc3ccc(F)cc32)c1C [Sunitinib malate, Butanedioic acid, hydroxy-, (2S)-, compound with N[2-(diethylamino)ethyl]-5-[(Z)-(5-fluoro-1,2-dihydro-2-oxo-3H-indol-3-ylidine)methyl]-2,4-dimethyl-1H-pyrrole-3-carboxamide (1:1)]",cognitive performance: total number of arm entries to complete the 8 arm radial arm maze,[10],progressively require fewer arm entries to complete an 8 arm radial arm maze; also recorded: perform significantly (p<0.05) better than AD mice not receiving the drug
same,release of matrix metalloproteinase-9 (MMP-9),[11],significantly decreased release of matrix metalloproteinase-9 (MMP-9)
same,menadione-induced release of MMP-9,"Endothelial cells [2]; 500 nM Sunitinib malate 4 h prior to (Pre), simultaneously (Co) or after (Post) 4 h menadione 25 μM",decreased release of both MMP-9; also recorded: significantly decreased release of MMP-9
same,menadione-mediated release of TNF-α,Endothelial cells [12],decreased release of both MMP-9 (FIG. 4) and TNFα; also recorded: decreased menadione-mediated release of TNF-α
"CC(=O)Nc1ccc(O)cc1 [acetaminophen, 4′-hydroxyacetanilide]",cognition,[13],improved cognition
same,cell survival (MTT),[14],significant increase in cell survival; also recorded: Cell survival increases significantly
